# Literature values as cited in publication PMC9851200, “Multiparameter phenotypic screening for endogenous TFEB and TFE3 translocation identifies novel chemical series modulating lysosome function” (Autophagy, 2022).
# Columns and labels:
# Parameters in all cases: method as in original PKIS2 published data
# [1] = target: kinases (KINOMEscan panel) (Homo sapiens, UniProt O43293); conditions: DAPK3; Published KINOMEscan; ref original PKIS2 published data; cited from earlier work
# [2] = target: kinases (KINOMEscan panel) (Homo sapiens, UniProt P06239); conditions: LCK; Published KINOMEscan; ref original PKIS2 published data; cited from earlier work
# [3] = target: kinases (KINOMEscan panel) (Homo sapiens, UniProt P27037); conditions: ACVR2A; Published KINOMEscan; ref original PKIS2 published data; cited from earlier work
# [4] = target: kinases (KINOMEscan panel) (Homo sapiens, UniProt P42684); conditions: ABL2; Published KINOMEscan; ref original PKIS2 published data; cited from earlier work
# [5] = target: kinases (KINOMEscan panel) (Homo sapiens, UniProt P43405); conditions: SYK; Published KINOMEscan; ref original PKIS2 published data; cited from earlier work
# [6] = target: T1, kinases (KINOMEscan panel) (Homo sapiens, UniProt P51955); conditions: kinase NEK2; Published KINOMEscan; ref original PKIS2 published data; cited from earlier work
# T1 sequence (P51955 1-445): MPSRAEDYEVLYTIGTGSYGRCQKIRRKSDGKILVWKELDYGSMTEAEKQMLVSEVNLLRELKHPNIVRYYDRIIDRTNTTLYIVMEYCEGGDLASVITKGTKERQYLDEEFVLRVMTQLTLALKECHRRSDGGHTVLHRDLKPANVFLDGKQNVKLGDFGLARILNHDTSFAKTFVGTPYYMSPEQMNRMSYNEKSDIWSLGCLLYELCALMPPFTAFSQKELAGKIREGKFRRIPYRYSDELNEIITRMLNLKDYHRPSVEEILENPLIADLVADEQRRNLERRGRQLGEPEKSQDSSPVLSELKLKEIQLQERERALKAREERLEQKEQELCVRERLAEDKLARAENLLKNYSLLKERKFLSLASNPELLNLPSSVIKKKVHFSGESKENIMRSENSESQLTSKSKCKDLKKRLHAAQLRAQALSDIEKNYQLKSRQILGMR
# [7] = target: kinases (KINOMEscan panel) (Homo sapiens, UniProt Q13177); conditions: PAK2; Published KINOMEscan; ref original PKIS2 published data; cited from earlier work
# [8] = target: kinases (KINOMEscan panel) (Homo sapiens, UniProt Q8NI60); conditions: COQ8A; Published KINOMEscan; ref original PKIS2 published data; cited from earlier work
# [9] = target: T2, kinases (KINOMEscan panel) (Homo sapiens, UniProt Q92630); conditions: DYRK2; Published KINOMEscan; ref original PKIS2 published data; cited from earlier work
# T2 sequence (Q92630 1-601): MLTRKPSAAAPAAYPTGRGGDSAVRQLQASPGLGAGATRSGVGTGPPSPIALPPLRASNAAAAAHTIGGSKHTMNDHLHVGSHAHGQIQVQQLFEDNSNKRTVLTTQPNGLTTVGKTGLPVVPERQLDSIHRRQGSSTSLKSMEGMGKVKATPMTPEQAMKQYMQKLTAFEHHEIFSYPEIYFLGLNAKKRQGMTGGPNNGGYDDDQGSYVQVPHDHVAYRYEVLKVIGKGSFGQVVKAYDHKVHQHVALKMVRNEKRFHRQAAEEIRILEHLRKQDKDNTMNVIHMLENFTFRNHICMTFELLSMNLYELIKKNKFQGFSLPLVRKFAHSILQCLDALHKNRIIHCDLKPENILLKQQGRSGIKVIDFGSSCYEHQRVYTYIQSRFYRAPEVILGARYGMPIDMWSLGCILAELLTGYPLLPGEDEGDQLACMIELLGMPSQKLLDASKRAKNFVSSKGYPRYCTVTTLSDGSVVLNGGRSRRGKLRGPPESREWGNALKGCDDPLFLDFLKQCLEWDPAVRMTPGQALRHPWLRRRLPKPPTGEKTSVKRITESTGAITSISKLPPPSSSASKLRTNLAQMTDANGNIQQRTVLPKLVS
# [10] = target: kinases (KINOMEscan panel) (Homo sapiens, UniProt Q9UEW8); conditions: Published KINOMEscan; ref original PKIS2 published data; cited from earlier work
# [11] = target: T3, kinases (KINOMEscan panel) (Homo sapiens, UniProt Q9UKI8); conditions: kinase TLK1; Published KINOMEscan; ref original PKIS2 published data; cited from earlier work
# T3 sequence (Q9UKI8 1-766): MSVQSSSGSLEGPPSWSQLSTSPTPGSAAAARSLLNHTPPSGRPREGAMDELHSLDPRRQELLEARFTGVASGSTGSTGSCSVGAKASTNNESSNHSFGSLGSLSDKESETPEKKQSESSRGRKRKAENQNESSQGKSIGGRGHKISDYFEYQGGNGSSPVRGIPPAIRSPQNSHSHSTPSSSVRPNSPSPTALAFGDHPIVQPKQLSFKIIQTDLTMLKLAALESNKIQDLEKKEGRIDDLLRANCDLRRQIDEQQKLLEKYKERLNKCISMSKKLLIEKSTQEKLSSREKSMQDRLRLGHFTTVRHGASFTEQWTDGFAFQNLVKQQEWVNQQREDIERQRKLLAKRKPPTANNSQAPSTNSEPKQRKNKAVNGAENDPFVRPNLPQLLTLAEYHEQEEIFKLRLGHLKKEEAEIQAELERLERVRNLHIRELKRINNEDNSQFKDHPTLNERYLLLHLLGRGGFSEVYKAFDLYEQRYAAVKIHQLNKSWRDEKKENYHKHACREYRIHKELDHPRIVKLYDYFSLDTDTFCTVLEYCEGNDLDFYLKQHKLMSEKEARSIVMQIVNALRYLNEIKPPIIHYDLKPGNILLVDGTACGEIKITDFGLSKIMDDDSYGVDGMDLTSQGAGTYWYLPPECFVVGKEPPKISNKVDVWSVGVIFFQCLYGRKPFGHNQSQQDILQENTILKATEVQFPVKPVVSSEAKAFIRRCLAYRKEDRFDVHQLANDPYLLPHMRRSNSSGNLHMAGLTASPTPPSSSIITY
# kinases (KINOMEscan panel) (Homo sapiens, UniProt Q8NI60), sequence (Q8NI60 163-647): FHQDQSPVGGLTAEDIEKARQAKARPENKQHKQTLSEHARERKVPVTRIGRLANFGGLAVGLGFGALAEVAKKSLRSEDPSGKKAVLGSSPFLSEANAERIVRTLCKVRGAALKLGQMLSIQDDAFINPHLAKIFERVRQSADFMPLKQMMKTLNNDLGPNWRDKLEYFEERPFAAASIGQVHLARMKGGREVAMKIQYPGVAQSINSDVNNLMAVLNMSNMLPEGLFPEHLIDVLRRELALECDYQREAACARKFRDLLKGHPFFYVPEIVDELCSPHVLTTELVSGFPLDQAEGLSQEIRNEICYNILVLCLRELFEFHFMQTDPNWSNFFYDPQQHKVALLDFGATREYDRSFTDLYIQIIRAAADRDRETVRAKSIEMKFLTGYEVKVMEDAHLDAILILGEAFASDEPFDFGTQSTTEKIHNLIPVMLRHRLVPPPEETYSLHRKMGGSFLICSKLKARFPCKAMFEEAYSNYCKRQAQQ
# kinases (KINOMEscan panel) (Homo sapiens, UniProt P27037), sequence (P27037 20-513): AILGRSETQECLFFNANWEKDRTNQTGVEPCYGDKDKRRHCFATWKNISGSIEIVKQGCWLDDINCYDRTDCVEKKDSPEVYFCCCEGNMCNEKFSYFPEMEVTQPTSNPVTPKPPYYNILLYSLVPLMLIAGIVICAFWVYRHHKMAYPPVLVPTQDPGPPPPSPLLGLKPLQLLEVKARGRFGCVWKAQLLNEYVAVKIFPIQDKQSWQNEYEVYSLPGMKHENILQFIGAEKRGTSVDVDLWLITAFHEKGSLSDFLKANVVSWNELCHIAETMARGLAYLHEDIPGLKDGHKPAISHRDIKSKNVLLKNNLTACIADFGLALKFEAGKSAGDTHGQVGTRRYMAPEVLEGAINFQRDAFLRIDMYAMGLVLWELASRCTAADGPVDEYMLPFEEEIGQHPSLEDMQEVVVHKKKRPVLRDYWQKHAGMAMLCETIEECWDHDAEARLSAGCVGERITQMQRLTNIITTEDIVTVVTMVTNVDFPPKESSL
# kinases (KINOMEscan panel) (Homo sapiens, UniProt Q13177), sequence (Q13177 whole entry): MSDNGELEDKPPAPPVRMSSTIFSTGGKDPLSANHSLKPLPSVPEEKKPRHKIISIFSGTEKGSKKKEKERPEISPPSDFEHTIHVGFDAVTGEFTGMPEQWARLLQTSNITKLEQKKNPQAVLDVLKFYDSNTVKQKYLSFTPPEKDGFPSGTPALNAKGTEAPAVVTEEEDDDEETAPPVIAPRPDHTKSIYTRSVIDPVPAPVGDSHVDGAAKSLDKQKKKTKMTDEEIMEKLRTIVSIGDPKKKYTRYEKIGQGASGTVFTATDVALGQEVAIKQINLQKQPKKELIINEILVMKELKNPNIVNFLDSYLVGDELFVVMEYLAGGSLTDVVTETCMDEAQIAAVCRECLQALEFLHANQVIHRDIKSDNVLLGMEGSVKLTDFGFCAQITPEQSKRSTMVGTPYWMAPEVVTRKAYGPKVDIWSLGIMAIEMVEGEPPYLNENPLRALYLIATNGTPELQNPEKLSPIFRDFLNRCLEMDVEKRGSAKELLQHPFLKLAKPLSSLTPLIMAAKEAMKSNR
# kinases (KINOMEscan panel) (Homo sapiens, UniProt P42684), sequence (P42684 whole entry): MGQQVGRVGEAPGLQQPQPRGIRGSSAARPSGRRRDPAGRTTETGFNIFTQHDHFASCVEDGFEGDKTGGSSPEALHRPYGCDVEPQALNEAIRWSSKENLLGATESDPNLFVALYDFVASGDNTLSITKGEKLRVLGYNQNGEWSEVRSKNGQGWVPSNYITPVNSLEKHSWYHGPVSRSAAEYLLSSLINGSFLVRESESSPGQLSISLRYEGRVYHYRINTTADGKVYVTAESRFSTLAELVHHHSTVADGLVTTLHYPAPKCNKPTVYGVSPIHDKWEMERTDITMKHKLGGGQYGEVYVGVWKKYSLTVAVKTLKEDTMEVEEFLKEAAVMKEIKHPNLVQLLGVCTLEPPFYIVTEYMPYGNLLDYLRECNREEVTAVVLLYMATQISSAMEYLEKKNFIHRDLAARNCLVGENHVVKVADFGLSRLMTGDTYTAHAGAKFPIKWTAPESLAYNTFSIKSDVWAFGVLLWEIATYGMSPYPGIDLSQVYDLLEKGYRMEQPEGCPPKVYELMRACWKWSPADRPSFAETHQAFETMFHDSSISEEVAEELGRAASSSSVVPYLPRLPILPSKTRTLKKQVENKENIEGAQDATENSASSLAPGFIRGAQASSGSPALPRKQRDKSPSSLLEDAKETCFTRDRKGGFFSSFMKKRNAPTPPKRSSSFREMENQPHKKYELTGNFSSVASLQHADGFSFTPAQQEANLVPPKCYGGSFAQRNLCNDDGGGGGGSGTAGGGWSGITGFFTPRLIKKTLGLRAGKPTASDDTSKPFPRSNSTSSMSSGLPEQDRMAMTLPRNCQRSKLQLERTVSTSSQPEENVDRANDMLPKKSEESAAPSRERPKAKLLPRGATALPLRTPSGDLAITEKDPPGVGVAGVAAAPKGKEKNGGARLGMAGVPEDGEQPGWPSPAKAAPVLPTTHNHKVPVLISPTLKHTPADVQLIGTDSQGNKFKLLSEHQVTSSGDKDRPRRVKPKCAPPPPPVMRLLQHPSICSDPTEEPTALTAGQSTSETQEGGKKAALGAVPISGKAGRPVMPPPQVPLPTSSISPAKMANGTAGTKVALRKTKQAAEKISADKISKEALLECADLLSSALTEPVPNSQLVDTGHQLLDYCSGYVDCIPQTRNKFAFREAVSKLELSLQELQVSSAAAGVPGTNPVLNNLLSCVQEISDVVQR
# kinases (KINOMEscan panel) (Homo sapiens, UniProt O43293), sequence (O43293 whole entry): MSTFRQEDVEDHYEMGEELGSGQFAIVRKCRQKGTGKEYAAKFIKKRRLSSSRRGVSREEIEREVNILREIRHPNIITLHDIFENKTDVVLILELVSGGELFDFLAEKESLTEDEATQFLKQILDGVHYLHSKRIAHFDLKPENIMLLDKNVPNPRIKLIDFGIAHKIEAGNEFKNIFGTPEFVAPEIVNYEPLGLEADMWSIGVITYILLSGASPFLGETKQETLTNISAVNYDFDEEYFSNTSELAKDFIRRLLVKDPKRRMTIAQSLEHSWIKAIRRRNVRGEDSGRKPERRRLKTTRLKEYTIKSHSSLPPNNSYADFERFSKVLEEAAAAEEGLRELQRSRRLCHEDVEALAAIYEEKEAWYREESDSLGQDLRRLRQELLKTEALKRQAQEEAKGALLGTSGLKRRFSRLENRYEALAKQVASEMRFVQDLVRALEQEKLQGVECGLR
# kinases (KINOMEscan panel) (Homo sapiens, UniProt P06239), sequence (P06239 whole entry): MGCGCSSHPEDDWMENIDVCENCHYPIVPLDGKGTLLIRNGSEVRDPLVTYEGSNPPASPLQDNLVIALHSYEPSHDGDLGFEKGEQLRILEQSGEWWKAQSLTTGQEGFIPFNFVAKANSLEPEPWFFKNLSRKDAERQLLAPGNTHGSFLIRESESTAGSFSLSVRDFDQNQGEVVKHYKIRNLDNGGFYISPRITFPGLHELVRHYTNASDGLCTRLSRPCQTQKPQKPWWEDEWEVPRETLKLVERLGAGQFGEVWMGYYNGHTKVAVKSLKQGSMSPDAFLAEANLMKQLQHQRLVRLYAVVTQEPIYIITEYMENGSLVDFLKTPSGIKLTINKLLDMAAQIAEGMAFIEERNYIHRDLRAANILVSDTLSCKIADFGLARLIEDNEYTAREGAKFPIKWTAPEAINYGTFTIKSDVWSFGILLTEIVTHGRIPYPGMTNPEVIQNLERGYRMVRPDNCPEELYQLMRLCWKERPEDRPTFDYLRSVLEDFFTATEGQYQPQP
compound,measurement,setting,value
Cc1cccc(-c2nc(Nc3ccncc3)c3ccccc3n2)n1 [NK215],KINOMEscan DAPK3,[1],17
same,KINOMEscan LCK,[2],9
same,KINOMEscan ACVR2A,[3],24
same,KINOMEscan ABL2,[4],22
same,KINOMEscan SYK,[5],14
same,KINOMEscan NEK2,[6],0
same,KINOMEscan PAK2,[7],0
same,KINOMEscan COQ8A,[8],27
same,KINOMEscan DYRK2,[9],0
same,KINOMEscan STK39,[10],0
same,KINOMEscan TLK1,[11],0
